According to patent US7868024B2, “Derivatives of N-(heteroaryl)-1-heteroaryl-1H-indole-2-carboxamides, preparation thereof and therapeutic use thereof” (Sanofi-Aventis, priority 2007, dated 2011):

Key:
TRPV1 receptor = molecular target: T1, TRPV1 receptor (Rattus norvegicus, UniProt O35433); assay: Inhibition of the current induced by capsaicin in rat DRG cells (whole-cell patch clamp); format: cell-based; conditions: DRG neuron; compound at 10 nM; capsaicin (1 μM) response; primary culture of newborn rat DRG neurons; read-out: % Inhibition by the DRG patch technique
T1 construct: The neurons of the DRG naturally express the TRPV1 receptor; endogenous in cells; host or cells: primary culture of newborn rat dorsal root ganglion (DRG) neurons
Description: Test of the Inhibition of the Current Induced by Capsaicin with Regard to Rat DRGs
Primary Culture of Rat Dorsal Root Ganglion (DRG) Cells:
The neurons of the DRG naturally express the TRPV1 receptor.
Primary cultures of DRGs of newborn rats are prepared from 1-day-old rats. Briefly, after dissection, the ganglions are trypsinized and their cells dissociated mechanically by gentle trituration. […]
The measurement chambers (volume 800 μl) comprising the cell preparation are placed on the stage of an inverted microscope (Olympus IMT2) equipped with Hoffman optics (Modulation Contrast, New York) and are observed at a magnification of 400×. […] The overall currents (membrane potential set at −60 mV) are recorded with an Axopatch 1D amplifier (Axon Instruments, Foster City, Calif.) connected to a PC controlled by Pclamp8 software (Axon Instruments). The current plots are recorded on paper and simultaneously recorded digitally (sampling frequency 15 to 25 Hz) and acquired on the hard disk of the PC.
The application of a micromolar capsaicin solution produces an incoming cationic current with regard to the DRG cells (voltage set at −70 mV). […] The results are expressed as % of inhibition of the control capsaicin response.

T1 sequence (O35433 whole entry): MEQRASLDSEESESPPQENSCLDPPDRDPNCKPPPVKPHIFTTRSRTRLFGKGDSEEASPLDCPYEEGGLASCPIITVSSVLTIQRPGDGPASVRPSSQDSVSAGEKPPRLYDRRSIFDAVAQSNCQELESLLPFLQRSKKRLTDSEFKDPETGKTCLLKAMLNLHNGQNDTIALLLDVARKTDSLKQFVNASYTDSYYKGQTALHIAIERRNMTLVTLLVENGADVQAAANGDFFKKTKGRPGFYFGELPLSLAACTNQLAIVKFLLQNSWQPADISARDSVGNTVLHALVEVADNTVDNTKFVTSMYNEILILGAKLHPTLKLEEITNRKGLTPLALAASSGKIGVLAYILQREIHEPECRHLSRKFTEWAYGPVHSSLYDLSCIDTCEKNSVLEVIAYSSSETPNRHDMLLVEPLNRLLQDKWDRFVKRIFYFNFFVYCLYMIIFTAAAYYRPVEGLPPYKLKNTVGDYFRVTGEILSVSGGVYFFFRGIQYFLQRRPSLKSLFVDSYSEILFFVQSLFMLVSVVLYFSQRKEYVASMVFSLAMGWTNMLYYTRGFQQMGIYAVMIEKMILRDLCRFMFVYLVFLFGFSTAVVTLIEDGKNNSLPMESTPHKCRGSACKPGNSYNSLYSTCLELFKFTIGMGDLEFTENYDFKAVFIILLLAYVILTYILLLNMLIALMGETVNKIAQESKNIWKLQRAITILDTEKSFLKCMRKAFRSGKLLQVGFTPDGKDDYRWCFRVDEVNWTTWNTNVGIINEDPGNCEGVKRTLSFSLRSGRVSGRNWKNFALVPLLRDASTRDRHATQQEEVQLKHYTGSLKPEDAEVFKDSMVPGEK

Row | Compound | melting point [°C] | inhibition at 0.01 µM (TRPV1 receptor) [%]
1 | Cc1cc(C)nc(-n2c(C(=O)Nc3ccc4c(ccn4C)c3)cc3cc(F)ccc32)c1 [Compound No. 11, N-(1-Methyl-1H-indol-5-yl)-5-fluoro-1-(4,6-dimethylpyridin-2-yl)-1H-indole-2-carboxamide] | 198 to 199 | 
2 | Cc1cc(-n2c(C(=O)Nc3ccc4c(ccn4C)c3)cc3cc(F)ccc32)ccn1 [Compound No. 9, N-(1-Methyl-1H-indol-5-yl)-5-fluoro-1-(2-methylpyridin-4-yl)-1H-indole-2-carboxamide] | 213 to 216 | 
3 | Cc1ccnc(-n2c(C(=O)Nc3ccc4c(ccn4C)c3)cc3cc(F)ccc32)c1 [Compound No. 7, N-(1-methyl-1H-indol-5-yl)-5-fluoro-1-(4-methylpyridin-2-yl)-1H-indole-2-carboxamide] | 276 to 279 | 
4 | Cc1cc(C)nc(-n2c(C(=O)Nc3ccc4c(c3)nc(C)n4C)cc3cc(F)ccc32)c1 [Compound No. 10, N-(1,2-Dimethyl-1H-benzimidazol-5-yl)-5-fluoro-1-(4,6-dimethylpyridin-2-yl)-1H-indole-2-carboxamide] |  | 70
5 | Cn1ccc2cc(NC(=O)c3cc4cc(F)ccc4n3-c3ccccn3)ccc21 [Compound No. 3, N-(1-Methyl-1H-indol-5-yl)-5-fluoro-1-(pyridin-2-yl)-1H-indole-2-carboxamide] | 210 to 211 | 
6 | Cn1ccc2cc(NC(=O)c3cc4cc(F)ccc4n3-c3cccnc3)ccc21 [Compound No. 2, N-(1-methyl-1H-indol-5-yl)-5-fluoro-1-(pyridin-3-yl)-1H-indole-2-carboxamide] | 203 to 205 | 

The next lines start with the values.

Row | melting point [°C] | inhibition at 0.01 µM (TRPV1 receptor) [%] | Compound
7 | 270 to 278 |  | Cc1ccnc(-n2c(C(=O)Nc3ccc4c(c3)nc(C)n4C)cc3cc(F)ccc32)c1 [Compound No. 8, N-(1,2-Dimethyl-1H-benzimidazol-5-yl)-5-fluoro-1-(4-methylpyridin-2-yl)-1H-indole-2-carboxamide]
8 | 139 to 141 |  | Cc1nc2cc(NC(=O)c3cc4cc(F)ccc4n3-c3cccnc3)ccc2n1C [Compound No. 6, N-(1,2-Dimethyl-1H-benzimidazol-5-yl)-5-fluoro-1-(pyridin-3-yl)-1H-indole-2-carboxamide]
9 | 260 to 261 |  | Cc1nc2cc(NC(=O)c3cc4cc(F)ccc4n3-c3ccccn3)ccc2n1C [Compound No. 5, N-(1,2-Dimethyl-1H-benzimidazol-5-yl)-5-fluoro-1-(pyridin-2-yl)-1H-indole-2-carboxamide]
10 | 226 to 229 |  | Cc1nc2cc(NC(=O)c3cc4cc(F)ccc4n3-c3ccncc3)ccc2n1C [Compound No. 4, N-(1,2-Dimethyl-1H-benzimidazol-5-yl)-5-fluoro-1-(pyridin-4-yl)-1H-indole-2-carboxamide]
